Assay results as given in patent US7169756B2, “Streptogramin antibiotics” (priority 2005, dated 2007).
≈ marks a conversion by molar mass, not a printed value. Read-outs that look alike come from different tables or passages of the source. Numbered stars: 1 amine (or outer) side, 2 acyl side, 3 side chain; on linkers, the order of the positions; unused ones are H or OH. Bridge positions count the residues as written; N and C are the ends. Square brackets hold non-standard residues; d marks the D form. Peptide text beside a SMILES is read from it. * marks the point of attachment. X1 = O=C1C[C@@H](C(=O)[*:2])N([*:1])C[C@H]1CS[C@@H]1CN2CCC1CC2; NMePhe(4-NMe2) = CN[C@@H](Cc1ccc(N(C)C)cc1)C(=O)O; Picolinoyl(3-OH) = O=C(c1ncccc1O)*; Phg = N[C@H](C(=O)O)c1ccccc1; Orn = NCCC[C@H](N)C(=O)O; dAbu = CC[C@@H](N)C(=O)O; Dap = NC[C@H](N)C(=O)O

Key:
[1] = system: E. coli BAS901/pUCVgb; assay: disk assay, zone of growth inhibition; format: cell-based, Escherichia coli; details: Vgb constitutively expressed
Excerpt: (§1) A hyperpermeable E. coli strain, E. coli BAS901, harboring a plasmid constitutively expressing Vgb was created for in vivo studies. The plasmids pVGB, described previously in [14], and […] were digested with Xbal and BamHI, to yield an approximately 1 kb fragment containing a ribosomal binding site upstream of vgb, and linearized pUC19 backbone, respectively. The vgb fragment was then subcloned into the linearized pUC19 backbone downstream of pLac yielding pUC19-VGB. Both pUC19-VGB and pUC19 were transformed E. coli BAS901.
(§2) The antibiotic activity of the peptides synthesized in this study was initially assayed using a disk assay where samples were applied to sterile paper disks placed on a fresh lawn of bacterial culture on appropriate agar plates as required by the organism. These were then incubated for 16 hr at 37° C. and the zone of growth inhibition surrounding the disks recorded. For quantitative assessment of antibiotic activity in liquid culture, the minimal inhibitory concentration (MIC) of peptides was determined by serial dilution studies. The peptides and standard antibiotics were dissolved in DMSO and the final concentration of DMSO in the liquid cultures was 5%. Both S. aureus RN4220 and E. coli BAS901 were able to grow efficiently at this level of DMSO.
(§3) Crude material from the initial synthesis reactions was used to test the potential of the analogues as antibiotics in susceptibility assays where a solution of the compound was placed on a paper disk on a lawn of bacteria. As described above, E. coli BAS901 is deficient in the Imp/OstA protein, an outer membrane protein, involved in cell envelope biogenesis (1, 5). […] The antibiotic activity of the peptides synthesized in this study was initially assayed using a disk assay where samples were applied to sterile paper disks placed on a fresh lawn of bacterial culture on Tryptic Soya, Luria Broth, or Brain Heart Infusion Agar plates. These were then incubated for 16 hrs at 37° C. and the zone of growth inhibition surrounding the disks recorded.

[2] = system: Enterococcus faecalis (ATCC 51299); assay: disk assay, zone of growth inhibition; format: cell-based; details: vancomycin, aminoglycoside resistant
Procedure: as §2, §3

[3] = system: Salmonella enterica (ATCC 14028); assay: disk assay, zone of growth inhibition; format: cell-based; details: serovar Typhimurium
Procedure: as §2, §3

[4] = system: Staphylococcus aureus (ATCC 25923); assay: disk assay, zone of growth inhibition; format: cell-based
Procedure: as §2, §3

[5] = system: Staphylococcus aureus (ATCC 29213); assay: disk assay, zone of growth inhibition; format: cell-based
Procedure: as §2, §3

[6] = system: Staphylococcus aureus (ATCC 43300); assay: disk assay, zone of growth inhibition; format: cell-based; details: methicillin resistant, oxacillin resistant
Procedure: as §2, §3

[7] = system: Staphylococcus aureus (ATCC 49476); assay: disk assay, zone of growth inhibition; format: cell-based
Procedure: as §2, §3

[8] = system: Streptococcus pneumoniae (ATCC 49619); assay: disk assay, zone of growth inhibition; format: cell-based
Procedure: as §2, §3

[9] = system: B. subtilis 168; format: cell-based, Bacillus subtilis
Procedure: as §2
(§4) Crude material from the initial synthesis reactions was used to test the potential of the analogues as antibiotics in susceptibility assays where a solution of the compound was placed on a paper disk on a lawn of bacteria. As described above, E. coli BAS901 is deficient in the Imp/OstA protein, an outer membrane protein, involved in cell envelope biogenesis (1, 5). […] These were then incubated for 16 hrs at 37° C. and the zone of growth inhibition surrounding the disks recorded.

[10] = system: Staphylococcus epidermidis (ATCC 14990); format: cell-based
Procedure: as §2, §3

[11] = system: E. coli (ATCC 25922); assay: disk assay, zone of growth inhibition; format: cell-based, Escherichia coli; details: wild-type
Procedure: as §2, §4

[12] = system: E. coli BAS901/pUC19; assay: microbe, parasite or virus in culture; format: cell-based, Escherichia coli
Excerpt: as §1, §2

[13] = system: E. coli BAS901/pUCVgb; assay: microbe, parasite or virus in culture; format: cell-based, Escherichia coli
Excerpt: as §1, §2

[14] = system: Enterococcus faecalis (ATCC 29212); assay: microbe, parasite or virus in culture; format: cell-based
Procedure: as §2

[15] = system: Staphylococcus aureus (ATCC 29213); assay: microbe, parasite or virus in culture; format: cell-based
Procedure: as §2

[16] = system: Staphylococcus aureus RN4220/pJIM2246; assay: microbe, parasite or virus in culture; format: cell-based
Procedure: as §2

[17] = system: Staphylococcus aureus RN4220/pJIM2246ΩermB; assay: microbe, parasite or virus in culture; format: cell-based
Procedure: as §2

[18] = system: Staphylococcus aureus RN4220/pJIM2246Ωvgb; assay: microbe, parasite or virus in culture; format: cell-based
Procedure: as §2

[19] = system: Staphylococcus epidermidis (ATCC 12228); assay: microbe, parasite or virus in culture; format: cell-based
Procedure: as §2

[20] = system: Staphylococcus epidermidis (ATCC 14990); assay: microbe, parasite or virus in culture; format: cell-based
Procedure: as §2

[21] = system: Staphylococcus saprophyticus (ATCC 15305); assay: microbe, parasite or virus in culture; format: cell-based
Procedure: as §2

[22] = system: Streptococcus pneumoniae (ATCC 49619); assay: microbe, parasite or virus in culture; format: cell-based
Procedure: as §2

[23] = system: Streptococcus pneumoniae (ATCC 6305); assay: microbe, parasite or virus in culture; format: cell-based
Procedure: as §2

[24] = system: in vitro translation; assay: In Vitro Translation Assay; format: biochemical; details: FIG. 6
Procedure: Inhibition of translation was monitored using an ActivePro In Vitro Translation Kit from Ambion. Briefly, a reaction mixture was prepared as per the manufacturer's instructions that contained all of the constituents necessary (including [^35S]-methionine) except for DNA template. These mixtures were then preincubated for 15 min at room temperature in the presence or absence of various antibiotics. Subsequent to the preincubation period, a control template containing a chloramphenicol acetyltransferase gene under control of a bacteriophage T7 promoter was added and the reaction carried out for 1 hr at 37° C. Due to the insoluble nature of some of the antibiotics, the final DMSO concentration in each reaction including controls was maintained at 5% (v/v). Aliquots were taken after 1 hr, and separated on SDS polyacrylamide gels. The efficiency of translation of ^35S-labeled […] was analyzed and quantified using a Typhoon 9200 variable mode imager (Image-Quant 5.2 software).

[25] = E. coli BAS901/pUCVgb (expressing Vgb)

## CC[C@H]1NC(=O)[C@@H](NC(=O)c2ncccc2O)[C@@H](C)OC(=O)[C@H](c2ccccc2)NC(=O)[C@@H]2CC(=O)[C@H](CS[C@@H]3CN4CCC3CC4)CN2C(=O)[C@H](Cc2ccc(N(C)C)cc2)N(C)C(=O)[C@@H]2CCCN2C1=O [Quinupristin, quinupristin, reference compound] ({Picolinoyl(3-OH)}-T[dAbu]P[NMePhe(4-NMe2)][X1][Phg]; ester 1-C)
[1]
  Zone of Inhibition: n.i.^a
[1]; listed as quinupristin
  Zone of Inhibition: inactivated
[2]
  Zone of Inhibition: n.i.
[3]
  Zone of Inhibition: n.i.
[4]
  Zone of Inhibition: 2.2 cm
[5]
  Zone of Inhibition: 2.3 cm
[6]
  Zone of Inhibition: n.i.
[7]
  Zone of Inhibition: 2.6 cm
[8]
  Zone of Inhibition: 2.0 cm
[9]; B. subtilis 168, disk assay
  Zone of Inhibition: 2.2 cm
[10]; Staphylococcus epidermidis (ATCC 14990), disk assay
  Zone of Inhibition: 3.0 cm
[11]
  Zone of Inhibition: n.i.
[12]; Escherichia coli, BAS901/PUC19
  MIC: 4 µg/mL (≈ 3.91 µM)
[13]; [25]
  MIC: increased significantly
[13]; Escherichia coli, BAS901/PUCVGB
  MIC: > 256 µg/mL
[14]; ATCC29212, Enterococcus faecalis (ATCC 29212), read-out: MIC
  MIC: 8 µg/mL (≈ 7.83 µM)
[15]; ATCC29213, read-out: MIC
  MIC: 4 µg/mL (≈ 3.91 µM)
[16]
  MIC: 2 µg/mL (≈ 1.96 µM)
[17]; Staphylococcus aureus
  MIC: 8 µg/mL (≈ 7.83 µM)
[18]; Staphylococcus aureus
  MIC: 8 µg/mL (≈ 7.83 µM)
[19]; ATCC12228, Staphylococcus epidermidis (ATCC 12228), read-out: MIC
  MIC: 0.5 µg/mL (≈ 0.489 µM)
[20]; ATCC14990, Staphylococcus epidermidis (ATCC 14990), read-out: MIC
  MIC: 1 µg/mL (≈ 0.978 µM)
[21]; ATCC15305, Staphylococcus saprophyticus (ATCC 15305), read-out: MIC
  MIC: 8 µg/mL (≈ 7.83 µM)
[22]; ATCC49619, Streptococcus pneumoniae (ATCC 49619), read-out: MIC
  MIC: 0.5 µg/mL (≈ 0.489 µM)
[23]; ATCC6305, Streptococcus pneumoniae (ATCC 6305), read-out: MIC
  MIC: 1 µg/mL (≈ 0.978 µM)
[24]; 15 min preincubation, 1 hr at 37° C., 5% DMSO, concentration not given
  inhibition of in vitro translation: did block

## CC(C)C[C@@H]1NC(=O)[C@H](CCCN)NC(=O)[C@H]([C@@H](C)O)NC(=O)[C@@H](NC(=O)c2ncccc2O)CNC(=O)[C@H](Cc2ccccc2)NC(=O)[C@@H]2CCCN2C(=O)[C@@H](Cc2ccccc2)NC1=O [Compound 5] ({Picolinoyl(3-OH)}-[Dap]T[Orn]L[dF]PF; lactam 1-C)
[1]
  Zone of Inhibition: still exhibit zones of inhibition
[2]
  Zone of Inhibition: n.i.
[3]
  Zone of Inhibition: n.i.
[4]
  Zone of Inhibition: n.i.
[5]
  Zone of Inhibition: n.i.
[6]
  Zone of Inhibition: n.i.
[7]
  Zone of Inhibition: n.i.
[8]
  Zone of Inhibition: n.i.
[9]; 168, 16 h
  Zone of Inhibition: 0.8 cm
[10]; ATCC 14990, 16 h
  Zone of Inhibition: 0.75 cm
[11]
  Zone of Inhibition: n.i.
[12]; E. coli BAS901/pUC19 (control), 5% DMSO
  MIC: 32 µg/mL (≈ 34.5 µM)
[13]; [25]
  MIC: 32 µg/mL (≈ 34.5 µM)
[14]; ATCC 29212, 16 h
  MIC: 128 µg/mL (≈ 138 µM)
[15]
  MIC: 256 µg/mL (≈ 276 µM)
[16]
  MIC: 256 µg/mL (≈ 276 µM)
[17]; Staphylococcus aureus RN4220/pJIM2246ΩermB
  MIC: 256 µg/mL (≈ 276 µM)
[18]; Staphylococcus aureus RN4220/pJIM2246Ωvgb
  MIC: 256 µg/mL (≈ 276 µM)
[19]; ATCC 12228, 16 h
  MIC: 64 µg/mL (≈ 69 µM)
[20]; ATCC 14990, 16 h
  MIC: 64 µg/mL (≈ 69 µM)
[21]; ATCC 15305, 16 h
  MIC: 64 µg/mL (≈ 69 µM)
[22]; ATCC 49619, 16 h
  MIC: 128 µg/mL (≈ 138 µM)
[23]; ATCC 6305, 16 h
  MIC: 32 µg/mL (≈ 34.5 µM)
[24]; at 250 μg/ml
  inhibition of in vitro translation: did not
